Measured values published in US12077503B2, “Substituted cyclic amides and their use as herbicides” (FMC CORPORATION, priority 2015, dated 2024).

Assays:
Format in all cases: in vivo
[1] = system: pigweed (Amaranthus retroflexus); assay: Test A preemergence
[2] = system: ragweed (common ragweed, Ambrosia elatior); assay: Test A preemergence
Method in brief: (§1)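 Visual injury scores from 0, no effect, to 100, complete control, were assigned versus untreated controls roughly 10 d after treatment in the greenhouse. Test chemicals, formulated with surfactant in a non-phytotoxic solvent, were applied to planted seeds as a preemergence soil spray or postemergence to one- to two-leaf plants 2 to 10 cm tall, in loam–sand soil.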

[3] = system: barnyardgrass (Echinochloa crus-galli); assay: Test A preemergence
Method in brief: as §1

Kochia (Kochia scoparia) [4] = assay: Test A preemergence
Method in brief: as §1

[5] = system: giant foxtail (Setaria faberii); assay: Test A preemergence
Method in brief: as §1

[6] = system: ryegrass, Italian (Italian ryegrass, Lolium multiflorum); assay: Test A preemergence
Method in brief: as §1

[7] = system: pigweed (Amaranthus retroflexus); assay: Test A postemergence
Method in brief: as §1

[8] = system: ragweed (common ragweed, Ambrosia elatior); assay: Test A postemergence
Method in brief: as §1

corn (Zea mays) = assay: Test A postemergence
Method in brief: as §1

[9] = system: barnyardgrass (Echinochloa crus-galli); assay: Test A postemergence
Method in brief: as §1

[10] = system: Galium (catchweed bedstraw, Galium aparine); assay: Test A postemergence
Method in brief: as §1

[11] = system: blackgrass (Alopecurus myosuroides); assay: Test A postemergence
Method in brief: as §1

Kochia (Kochia scoparia) [12] = assay: Test A postemergence
Method in brief: as §1

[13] = system: giant foxtail (Setaria faberii); assay: Test A postemergence
Method in brief: as §1

[14] = system: wheat (Triticum aestivum); assay: Test A postemergence
Method in brief: as §1

[15] = system: ryegrass, Italian (Italian ryegrass, Lolium multiflorum); assay: Test A postemergence
Method in brief: as §1

[16] = system: sedge, umbrella (small-flower umbrella sedge, Cyperus difformis); assay: Test B flooded paddy test; conditions: Flood, 0 to 100 scale where 0 is no effect and 100 is complete control, 13 to 15 d
Method in brief: (§2)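 Compound goes directly into floodwater once pots are flooded 3 cm above soil, targeting plants at two leaves; the water depth is then held for the test duration. Plants sit 13–15 d in a greenhouse and are rated visually, 100 denoting complete control.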

[17] = system: ducksalad (Heteranthera limosa); assay: Test B flooded paddy test; conditions: Flood, 0 to 100 scale where 0 is no effect and 100 is complete control, 13 to 15 d
Method in brief: as §2

[18] = system: barnyardgrass (Echinochloa crus-galli); assay: Test B flooded paddy test; conditions: Flood, 0 to 100 scale where 0 is no effect and 100 is complete control, 13 to 15 d
Method in brief: as §2

rice (Oryra sativa) = assay: Test B flooded paddy test; conditions: Flood, 0 to 100 scale where 0 is no effect and 100 is complete control, 13 to 15 d
Method in brief: as §2

[19] = 125 g ai/ha, Preemergence, visual injury after approximately 10 d, 0 to 100 scale where 0 is no effect and 100 is complete control
[20] = 500 g ai/ha, preemergence, 0 to 100 scale, 0 = no effect, 100 = complete control
[21] = 125 g ai/ha, postemergence, visual rating after approx. 10 d, 0 to 100 scale (0 no effect, 100 complete control)
[22] = 500 g ai/ha, postemergence, visual injury, 0 to 100 scale (0 no effect, 100 complete control), approx. 10 d
[23] = Postemergence, 500 g ai/ha, 0 to 100 scale where 0 is no effect and 100 is complete control
[24] = Preemergence, 500 g ai/ha, visual injury approx. 10 d

Cc1ccc(C2CNC(=O)C2C(=O)Nc2ccc(F)c(F)c2F)cc1C(F)(F)F (racemic) [Compound 681]
0: Plant response rating, Pigweed [1, 19] | Plant response rating, Ragweed [2, 19] | Plant response rating, Ragweed [2, 20] | Plant response rating, Ryegrass, Italian [6, 19] | Plant response rating, Pigweed [7, 21] | Plant response rating, Pigweed [7, 22] | Plant response rating, Ragweed [8, 21] | Plant response rating, Ragweed [8, 22] | Plant response rating, Corn (corn (Zea mays); [21]) | Plant response rating, Blackgrass [11, 21] | Plant response rating, Kochia (Kochia (Kochia scoparia) [12]; [21]) | Plant response rating, Foxtail, Giant [13, 21] | Plant response rating, Wheat [14, 21] | Plant response rating, Wheat [14, 22] | Plant response rating, Ryegrass, Italian [15, 21] | Plant response rating, Sedge, Umbrella ([16]; 250 g ai/ha) | Plant response rating, Rice (rice (Oryra sativa); 250 g ai/ha)
60: Plant response rating, Kochia (Kochia (Kochia scoparia) [4]; [20])
20: Plant response rating, Kochia (Kochia (Kochia scoparia) [4]; [19]) | Plant response rating, Ryegrass, Italian [15, 22]
25: Plant response rating, Ducksalad ([17]; 250 g ai/ha)
40: Plant response rating, Barnyardgrass [9, 21] | Plant response rating, Kochia (Kochia (Kochia scoparia) [12]; [22])
35: Plant response rating, Barnyardgrass ([18]; 250 g ai/ha)
30: Plant response rating, Pigweed [1, 20] | Plant response rating, Ryegrass, Italian [6, 20] | Plant response rating, Corn (corn (Zea mays); [22]) | Plant response rating, Galium [10, 21] | Plant response rating, Blackgrass [11, 22] | Plant response rating, Foxtail, Giant [13, 22]
70: Plant response rating, Barnyardgrass [3, 19]
50: Plant response rating, Galium [10, 22]
80: Plant response rating, Barnyardgrass [3, 20]
90: Plant response rating, Foxtail, Giant [5, 19] | Plant response rating, Foxtail, Giant [5, 20] | Plant response rating, Barnyardgrass [9, 22]

NS(=O)(=O)c1ccccc1NC(=O)C1C(=O)NCC1c1cccc(C(F)(F)F)c1 (stereo not drawn) [Compound 634]
60: Plant response rating, Foxtail, Giant [5, 19] | Plant response rating, Galium [10, 22]
70: Plant response rating, Barnyardgrass [3, 20]
15: Plant response rating, Rice (rice (Oryra sativa); 500 g ai/ha)
0: Plant response rating, Pigweed [1, 19] | Plant response rating, Ragweed [2, 19] | Plant response rating, Ragweed [2, 20] | Plant response rating, Kochia (Kochia (Kochia scoparia) [4]; [19]) | Plant response rating, Kochia (Kochia (Kochia scoparia) [4]; [20]) | Plant response rating, Ryegrass, Italian [6, 19] | Plant response rating, Ryegrass, Italian [6, 20] | Plant response rating, Pigweed [7, 21] | Plant response rating, Pigweed [7, 22] | Plant response rating, Ragweed [8, 21] | Plant response rating, Ragweed [8, 22] | Plant response rating, Corn (corn (Zea mays); [21]) | Plant response rating, Corn (corn (Zea mays); [23]) | Plant response rating, Blackgrass [11, 21] | Plant response rating, Blackgrass [11, 23] | Plant response rating, Kochia (Kochia (Kochia scoparia) [12]; [21]) | Plant response rating, Kochia (Kochia (Kochia scoparia) [12]; [22]) | Plant response rating, Wheat [14, 21] | Plant response rating, Wheat [14, 22] | Plant response rating, Ryegrass, Italian [15, 21] | Plant response rating, Sedge, Umbrella ([16]; 500 g ai/ha)
40: Plant response rating, Barnyardgrass [9, 21] | Plant response rating, Ducksalad ([17]; 500 g ai/ha)
50: Plant response rating, Foxtail, Giant [13, 21]
80: Plant response rating, Foxtail, Giant [5, 20] | Plant response rating, Barnyardgrass [9, 23] | Plant response rating, Foxtail, Giant [13, 22]
20: Plant response rating, Barnyardgrass [3, 19] | Plant response rating, Ryegrass, Italian [15, 22] | Plant response rating, Barnyardgrass ([18]; 500 g ai/ha)
30: Plant response rating, Pigweed [1, 20] | Plant response rating, Galium [10, 21]

O=C1NCC(c2cc(F)c(F)cc2F)C1C(=O)Nc1ccc(F)cc1F (racemic) [Compound 551]
20: Plant response rating, Barnyardgrass ([18]; 250 g ai/ha)
0: Plant response rating, Pigweed [1, 19] | Pigweed plant response rating (0 to 100 scale, 0 is no effect, 100 is complete control) [1, 24] | Plant response rating, Ragweed [2, 19] | Ragweed plant response rating (0 to 100 scale, 0 is no effect, 100 is complete control) [2, 24] | Plant response rating, Kochia (Kochia (Kochia scoparia) [4]; [19]) | Kochia plant response rating (0 to 100 scale, 0 is no effect, 100 is complete control) (Kochia (Kochia scoparia) [4]; [24]) | Plant response rating, Ryegrass, Italian [6, 19] | Ryegrass, Italian plant response rating (0 to 100 scale, 0 is no effect, 100 is complete control) [6, 24] | Plant response rating, Pigweed [7, 21] | Plant response rating, Pigweed [7, 23] | Plant response rating, Ragweed [8, 21] | Plant response rating, Ragweed [8, 23] | Plant response rating, Corn (corn (Zea mays); [21]) | Plant response rating, Corn (corn (Zea mays); [23]) | Plant response rating, Galium [10, 21] | Plant response rating, Galium [10, 23] | Plant response rating, Blackgrass [11, 21] | Plant response rating, Blackgrass [11, 23] | Plant response rating, Kochia (Kochia (Kochia scoparia) [12]; [21]) | Plant response rating, Kochia (Kochia (Kochia scoparia) [12]; [23]) | Plant response rating, Wheat [14, 21] | Plant response rating, Wheat [14, 23] | Plant response rating, Ryegrass, Italian [15, 21] | Plant response rating, Ryegrass, Italian [15, 23] | Plant response rating, Sedge, Umbrella ([16]; 250 g ai/ha)
80: Plant response rating, Foxtail, Giant [5, 19] | Plant response rating, Barnyardgrass [9, 23] | Plant response rating, Foxtail, Giant [13, 23]
30: Plant response rating, Barnyardgrass [3, 19]
90: Barnyardgrass plant response rating (0 to 100 scale, 0 is no effect, 100 is complete control) [3, 24] | Foxtail, Giant plant response rating (0 to 100 scale, 0 is no effect, 100 is complete control) [5, 24]
10: Plant response rating, Barnyardgrass [9, 21]
50: Plant response rating, Foxtail, Giant [13, 21]
85: Plant response rating, Ducksalad ([17]; 250 g ai/ha)
15: Plant response rating, Rice (rice (Oryra sativa); 250 g ai/ha)
